From article PMC6979384, “Characterization of the plant homeodomain (PHD) reader family for their histone tail interactions” (Epigenetics & Chromatin, 2020)
Blank lines part the entries; values can stand above or below the substance they belong to.

Experiments:
Experiment in all cases: Histone peptide microarray
Format in all cases: binding, human
MORC3 (CW) = details: MORC3 (CW); for Array Heatmap value (peptide array signal): sheet "Array Heatmap", each array performed twice, total n = 4
Method in brief: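 Readout is array binding signal, reported as the mean and standard deviation over four replicates. Each purified GST-fused PHD domain was incubated at 0.5 μM with a library of 293 modified histone peptides.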

TAF3 = details: for Array Heatmap value (peptide array signal): TAF3, sheet "Array Heatmap", each array performed twice, total n = 4
Method in brief: (§1)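 Using an optimized microarray protocol, purified GST-tagged PHD fingers were incubated at 0.5 μM on 293 histone peptides with single or multiple modifications, and array signal was recorded as the average of 4 replicates.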

KDM5B (3) = details: KDM5B (3); for Array Heatmap value (peptide array signal): sheet "Array Heatmap", each array performed twice, total n = 4
Method in brief: as §1

ING4 = details: for Array Heatmap value (peptide array signal): ING4, sheet "Array Heatmap", each array performed twice, total n = 4
Method in brief: as §1

SP140L = details: SP140L; for Array Heatmap value (peptide array signal): sheet "Array Heatmap", each array performed twice, total n = 4
Method in brief: as §1

BPTF (PB) = details: BPTF (PB); for Array Heatmap value (peptide array signal): sheet "Array Heatmap", each array performed twice, total n = 4
Method in brief: as §1

RAG2 = details: for Array Heatmap value (peptide array signal): RAG2, sheet "Array Heatmap", each array performed twice, total n = 4
Method in brief: as §1

KDM5B (1) = details: KDM5B (1); for Array Heatmap value (peptide array signal): sheet "Array Heatmap", each array performed twice, total n = 4
Method in brief: as §1

KDM5A (1) = details: KDM5A (1); for Array Heatmap value (peptide array signal): sheet "Array Heatmap", each array performed twice, total n = 4
Method in brief: as §1

PHRF1 (RP) = details: PHRF1 (RP); for Array Heatmap value (peptide array signal): sheet "Array Heatmap", each array performed twice, total n = 4
Method in brief: as §1

ING2 = details: for Array Heatmap value (peptide array signal): ING2, sheet "Array Heatmap", each array performed twice, total n = 4
Method in brief: as §1

DPF2 (PPC2W2) = details: DPF2 (PPC2W2); for Array Heatmap value (peptide array signal): sheet "Array Heatmap", each array performed twice, total n = 4
Method in brief: as §1

KDM4C (TTP) = details: KDM4C (TTP); for Array Heatmap value (peptide array signal): sheet "Array Heatmap", each array performed twice, total n = 4
Method in brief: as §1

BAZ2B = details: BAZ2B; for Array Heatmap value (peptide array signal): sheet "Array Heatmap", each array performed twice, total n = 4
Method in brief: as §1

KDM5A (3) = details: KDM5A (3); for Array Heatmap value (peptide array signal): sheet "Array Heatmap", each array performed twice, total n = 4
Method in brief: as §1

CHD5 (PCC) = details: CHD5 (PCC); for Array Heatmap value (peptide array signal): sheet "Array Heatmap", each array performed twice, total n = 4
Method in brief: as §1

CHD5 (PPCC) = details: CHD5 (PPCC); for Array Heatmap value (peptide array signal): sheet "Array Heatmap", each array performed twice, total n = 4
Method in brief: as §1

TRIM66 (PB) = details: TRIM66 (PB); for Array Heatmap value (peptide array signal): sheet "Array Heatmap", each array performed twice, total n = 4
Method in brief: as §1

ING3 = details: for Array Heatmap value (peptide array signal): ING3, sheet "Array Heatmap", each array performed twice, total n = 4
Method in brief: as §1

PHF23 = details: for Array Heatmap value (peptide array signal): PHF23, sheet "Array Heatmap", each array performed twice, total n = 4
Method in brief: as §1

DIDO1 = details: for Array Heatmap value (peptide array signal): DIDO1, sheet "Array Heatmap", each array performed twice, total n = 4
Method in brief: as §1

AIRE (PP) = details: AIRE (PP); for Array Heatmap value (peptide array signal): sheet "Array Heatmap", each array performed twice, total n = 4
Method in brief: as §1

KDM7A = details: KDM7A; for Array Heatmap value (peptide array signal): sheet "Array Heatmap", each array performed twice, total n = 4
Method in brief: as §1

MLL5 = details: for Array Heatmap value (peptide array signal): MLL5, sheet "Array Heatmap", each array performed twice, total n = 4
Method in brief: as §1

PHF8 = details: for Array Heatmap value (peptide array signal): PHF8, sheet "Array Heatmap", each array performed twice, total n = 4
Method in brief: as §1

CHD4 (PPCC) = details: CHD4 (PPCC); for Array Heatmap value (peptide array signal): sheet "Array Heatmap", each array performed twice, total n = 4
Method in brief: as §1

PHF13 = details: for Array Heatmap value (peptide array signal): PHF13, sheet "Array Heatmap", each array performed twice, total n = 4
Method in brief: as §1

ING5 = details: for Array Heatmap value (peptide array signal): ING5, sheet "Array Heatmap", each array performed twice, total n = 4
Method in brief: as §1

ING1 = details: for Array Heatmap value (peptide array signal): ING1, sheet "Array Heatmap", each array performed twice, total n = 4
Method in brief: as §1

PHF2 = details: for Array Heatmap value (peptide array signal): PHF2, sheet "Array Heatmap", each array performed twice, total n = 4
Method in brief: as §1

PHF21A = details: PHF21A; for Array Heatmap value (peptide array signal): sheet "Array Heatmap", each array performed twice, total n = 4
Method in brief: as §1

[1] = GST-tagged, arrays performed twice, n of 4

Substance: H4K5butK8butK12but: H4 1-23
Array Heatmap value (peptide array signal) (MORC3 (CW)): 0.3355
Array Heatmap value (peptide array signal) (TAF3): 0.2569
Array Heatmap value (peptide array signal) (KDM5B (3)): 0.4196
Array Heatmap value (peptide array signal) (ING4): 0.4352
Array Heatmap value (peptide array signal) (SP140L): 0.3551
Array Heatmap value (peptide array signal) (BPTF (PB)): 0.3272
Array Heatmap value (peptide array signal) (RAG2): 0.2246
Array Heatmap value (peptide array signal) (KDM5B (1)): 0.5776
Array Heatmap value (peptide array signal) (KDM5A (1)): 0.419
Array Heatmap value (peptide array signal) (PHRF1 (RP)): 0.4335
Array Heatmap value (peptide array signal) (ING2): 0.5892
Array Heatmap value (peptide array signal) (DPF2 (PPC2W2)): 0.6505
Array Heatmap value (peptide array signal) (KDM4C (TTP)): 0.4273
Array Heatmap value (peptide array signal) (BAZ2B): 0.414
Array Heatmap value (peptide array signal) (KDM5A (3)): 0.4238
Array Heatmap value (peptide array signal) (CHD5 (PCC)): 0.661
Array Heatmap value (peptide array signal) (CHD5 (PPCC)): 0.5134
Array Heatmap value (peptide array signal) (TRIM66 (PB)): 0.5547
Array Heatmap value (peptide array signal) (ING3): 0.4441
Array Heatmap value (peptide array signal) (PHF23): 0.5206
Array Heatmap value (peptide array signal) (DIDO1): 0.6712
Array Heatmap value (peptide array signal) (AIRE (PP)): 0.3828
Array Heatmap value (peptide array signal) (KDM7A): 0.3032
Array Heatmap value (peptide array signal) (MLL5): 0.5293
Array Heatmap value (peptide array signal) (PHF8): 0.3282
Array Heatmap value (peptide array signal) (CHD4 (PPCC)): 0.5302
Array Heatmap value (peptide array signal) (PHF13): 0.5714
Array Heatmap value (peptide array signal) (ING5): 0.3275
Array Heatmap value (peptide array signal) (ING1): 0.5532
Array Heatmap value (peptide array signal) (PHF2): 0.5429
Array Heatmap value (peptide array signal) (PHF21A): 0.3738

Substance: H4K5crK8crK12cr: H4 1-23
Array Heatmap value (peptide array signal) (MORC3 (CW)): 0.2832
Array Heatmap value (peptide array signal) (TAF3): 0.2134
Array Heatmap value (peptide array signal) (KDM5B (3)): 0.4017
Array Heatmap value (peptide array signal) (ING4): 0.3713
Array Heatmap value (peptide array signal) (SP140L): 0.3203
Array Heatmap value (peptide array signal) (BPTF (PB)): 0.277
Array Heatmap value (peptide array signal) (RAG2): 0.2029
Array Heatmap value (peptide array signal) (KDM5B (1)): 0.5237
Array Heatmap value (peptide array signal) (KDM5A (1)): 0.3568
Array Heatmap value (peptide array signal) (PHRF1 (RP)): 0.3292
Array Heatmap value (peptide array signal) (ING2): 0.5899
Array Heatmap value (peptide array signal) (DPF2 (PPC2W2)): 0.6037
Array Heatmap value (peptide array signal) (KDM4C (TTP)): 0.3678
Array Heatmap value (peptide array signal) (BAZ2B): 0.3353
Array Heatmap value (peptide array signal) (KDM5A (3)): 0.3558
Array Heatmap value (peptide array signal) (CHD5 (PCC)): 0.6269
Array Heatmap value (peptide array signal) (CHD5 (PPCC)): 0.4173
Array Heatmap value (peptide array signal) (TRIM66 (PB)): 0.525
Array Heatmap value (peptide array signal) (ING3): 0.3926
Array Heatmap value (peptide array signal) (PHF23): 0.4763
Array Heatmap value (peptide array signal) (DIDO1): 0.571
Array Heatmap value (peptide array signal) (AIRE (PP)): 0.3482
Array Heatmap value (peptide array signal) (KDM7A): 0.2744
Array Heatmap value (peptide array signal) (MLL5): 0.4572
Array Heatmap value (peptide array signal) (PHF8): 0.292
Array Heatmap value (peptide array signal) (CHD4 (PPCC)): 0.5037
Array Heatmap value (peptide array signal) (PHF13): 0.5013
Array Heatmap value (peptide array signal) (ING5): 0.2562
Array Heatmap value (peptide array signal) (ING1): 0.4798
Array Heatmap value (peptide array signal) (PHF2): 0.4485
Array Heatmap value (peptide array signal) (PHF21A): 0.3861

Array Heatmap value (peptide array binding signal) (MORC3 (CW); [1]): 0.4265
Array Heatmap value (peptide array binding signal) (TAF3; TAF3, GST-tagged, arrays performed twice, n of 4): 0.3308
Array Heatmap value (peptide array binding signal) (KDM5B (3); [1]): 0.5457
Array Heatmap value (peptide array binding signal) (ING4; ING4, GST-tagged, arrays performed twice, n of 4): 0.5451
Array Heatmap value (peptide array binding signal) (SP140L; [1]): 0.3991
Array Heatmap value (peptide array binding signal) (BPTF (PB); [1]): 0.4183
Array Heatmap value (peptide array binding signal) (RAG2; RAG2, GST-tagged, arrays performed twice, n of 4): 0.3031
Array Heatmap value (peptide array binding signal) (KDM5B (1); [1]): 0.6332
Array Heatmap value (peptide array binding signal) (KDM5A (1); [1]): 0.5517
Array Heatmap value (peptide array binding signal) (PHRF1 (RP); [1]): 0.5306
Array Heatmap value (peptide array binding signal) (ING2; ING2, GST-tagged, arrays performed twice, n of 4): 0.6422
Array Heatmap value (peptide array binding signal) (DPF2 (PPC2W2); [1]): 0.7706
Array Heatmap value (peptide array binding signal) (KDM4C (TTP); [1]): 0.5708
Array Heatmap value (peptide array binding signal) (BAZ2B; [1]): 0.543
Array Heatmap value (peptide array binding signal) (KDM5A (3); [1]): 0.517
Array Heatmap value (peptide array binding signal) (CHD5 (PCC); [1]): 0.8576
Array Heatmap value (peptide array binding signal) (CHD5 (PPCC); [1]): 0.6548
Array Heatmap value (peptide array binding signal) (TRIM66 (PB); [1]): 0.6456
Array Heatmap value (peptide array binding signal) (ING3; ING3, GST-tagged, arrays performed twice, n of 4): 0.5888
Array Heatmap value (peptide array binding signal) (PHF23; PHF23, GST-tagged, arrays performed twice, n of 4): 0.6043
Array Heatmap value (peptide array binding signal) (DIDO1; DIDO1, GST-tagged, arrays performed twice, n of 4): 0.8543
Array Heatmap value (peptide array binding signal) (AIRE (PP); [1]): 0.4948
Array Heatmap value (peptide array binding signal) (KDM7A; [1]): 0.4052
Array Heatmap value (peptide array binding signal) (MLL5; MLL5, GST-tagged, arrays performed twice, n of 4): 0.6366
Array Heatmap value (peptide array binding signal) (PHF8; PHF8, GST-tagged, arrays performed twice, n of 4): 0.4273
Array Heatmap value (peptide array binding signal) (CHD4 (PPCC); [1]): 0.6385
Array Heatmap value (peptide array binding signal) (PHF13; PHF13, GST-tagged, arrays performed twice, n of 4): 0.7061
Array Heatmap value (peptide array binding signal) (ING5; ING5, GST-tagged, arrays performed twice, n of 4): 0.4376
Array Heatmap value (peptide array binding signal) (ING1; ING1, GST-tagged, arrays performed twice, n of 4): 0.6473
Array Heatmap value (peptide array binding signal) (PHF2; PHF2, GST-tagged, arrays performed twice, n of 4): 0.6413
Array Heatmap value (peptide array binding signal) (PHF21A; [1]): 0.5236
Substance: H4K5me1: H4 1-23 [Peptide H4K5me1]
